Values quoted from earlier work as cited in patent US20040120995A1, “Transdermal delivery of pergolide” (priority 2003, published 2004).
Counter-ions that a name gives are not always drawn. Like-named read-outs stand apart in the source and are kept apart here.

Conditions: for Pergolide Blood Serum Level: human subjects

- maximum blood serum level (2-3 hours following a 2.5 mg oral dose): about 500 picograms/ml
- blood serum level (8 hours following a 0.5 mg oral dose): about 60 picograms/ml
- Pergolide Blood Serum Level (oral dose 0.25 milligrams): 47.75 picograms/ml
- Pergolide Blood Serum Level (oral dose 0.50 milligrams): 100.08 picograms/ml
- Pergolide Blood Serum Level (oral dose 1.00 milligrams): 199.33 picograms/ml
- Pergolide Blood Serum Level (oral dose 2.00 milligrams): 398.66 picograms/ml
- Pergolide Blood Serum Level (oral dose 3.00 milligrams): 597.99 picograms/ml
- peak serum concentration (oral dosing 3 mg/24 hours, divided into three doses): approximately 200 pg/ml
SMILES: CCCN1C[C@H](CSC)C[C@@H]2c3cccc4[nH]cc(c34)C[C@H]21 [pergolide mesylate]
